Data as given in ChEMBL document CHEMBL5370609, “Amidine-Based Cationic Conjugated Oligoelectrolytes with Antimicrobial Activity against Pseudomonas aeruginosa Biofilms” (J Med Chem, 2023).
Values after ≈ are worked out from the molar mass of the structure shown. Active and inactive are the calls of the source. The rule behind the calls is not given here.

What was measured:
[1] = system: Pseudomonas aeruginosa; assay: Antibacterial activity against Pseudomonas aeruginosa ATCC 27853 assessed as inhibition of bacterial growth incubated overnight by broth microdilution method; format: functional
[2] = system: Escherichia coli; assay: Antibacterial activity against Escherichia coli ATCC 25922 assessed as inhibition of bacterial growth incubated for overnight by broth microdilution method; format: functional
[3] = system: Klebsiella pneumoniae; assay: Antibacterial activity against Klebsiella pneumoniae ATCC 700603 assessed as inhibition of bacterial growth incubated overnight by broth microdilution method; format: functional
[4] = system: Staphylococcus aureus; assay: Antibacterial activity against Staphylococcus aureus ATCC 29213 assessed as inhibition of bacterial growth incubated overnight by broth microdilution method; format: functional
[5] = Cytotoxicity against human HepG2 cells assessed as reduction in cell viability incubated for 24 hrs by MTT assay; format: toxicity, cell-based
[6] = Selectivity index, IC50 for cytotoxicity against human HepG2 cells to MIC for antibacterial activity against Pseudomonas aeruginosa ATCC 27853 assessed as inhibition of bacterial growth; format: toxicity, cell-based; details: read-out: Selectivity Index
[7] = system: Pseudomonas aeruginosa; assay: Antibiofilm activity in Pseudomonas aeruginosa PAO1 assessed as eradication of preformed biofilm at 64 to 128 ug/ml incubated for 24 hr by BacTiter Glo reagent based luminescence analysis; format: functional, organism-based; details: dose 64-128 µg/ml
[8] = system: Pseudomonas aeruginosa; assay: Inhibition of biofilm formation in Pseudomonas aeruginosa PAO1 incubated for 24 hrs by crystal violet staining based analysis; format: functional
[9] = system: Pseudomonas aeruginosa; assay: Inhibition of biofilm formation in Pseudomonas aeruginosa PAO1 at below MIC incubated for 24 hrs by crystal violet staining based analysis; format: functional, organism-based
[10] = system: Pseudomonas aeruginosa; assay: Antibacterial activity against Pseudomonas aeruginosa PAO1 assessed as inhibition of bacterial growth incubated overnight by broth microdilution method; format: functional
[11] = system: Pseudomonas aeruginosa; assay: Bactericidal activity against Pseudomonas aeruginosa PAO1 assessed as reduction in colony forming units at 4 times of MIC incubated for 1 hrs by time-kill kinetics assay relative to control; format: functional; parameters: scale not given: the % may be the effect or the level left
[12] = system: Pseudomonas aeruginosa; assay: Induction of spontaneous resistance development in Pseudomonas aeruginosa PAO1 assessed as frequency of resistance at 2 to 4 times of MIC incubated for 48 hrs by FoR assay; format: functional
[13] = system: Pseudomonas aeruginosa; assay: Induction of resistance development in Pseudomonas aeruginosa PAO1 assessed as fold increase in MIC measured after consecutive passages for 21 days by serial passaging assay relative to day 1 MIC; format: functional; details: time 21 day
[14] = system: Pseudomonas aeruginosa; assay: Antibiofilm activity in Pseudomonas aeruginosa PAO1 assessed as eradication of preformed biofilm at 256 ug/ml incubated for 24 hr by BacTiter Glo reagent based luminescence analysis; format: functional, organism-based; details: dose 256.0 µg/ml
[15] = Dissociation constant, pKa of compound at pH 7.4 by potentiometric titration method; format: physicochemical
[16] = system: NIH3T3; assay: Cytotoxicity against mouse 3T3 cells assessed as reduction in cell viability incubated for 24 hrs by CellTiter-Glo reagent based luminescence assay; format: toxicity; details: nih3t3, 24 h
[17] = system: Pseudomonas aeruginosa; assay: Inhibition of biofilm formation in Pseudomonas aeruginosa PAO1 at below MIC incubated for 24 hrs by crystal violet staining based analysis relative to control; format: functional
[18] = system: Pseudomonas aeruginosa; assay: Antibacterial activity against Pseudomonas aeruginosa PAO1 infected in C57BL/6 mouse wound model assessed as log reduction in colony forming unit on wound bed at 0.5 % w/v pre-infected with bacteria for 4 hrs followed by topical administration of compounds for 20 hrs and measured 24 hrs post infection; format: functional
[19] = Hemolytic activity in human blood assessed as hemolysis at 492 ug/ml incubated for 45 mins by absorbance based plate reader analysis relative to control; format: toxicity, tissue-based; details: at 492 µg/mL, read-out: Activity
[20] = system: Pseudomonas aeruginosa; assay: Antibiofilm activity against preformed biofilm in Pseudomonas aeruginosa PAO1 assessed as biofilm killing at 128 ug/ml incubated for 24 hrs by BacTiter Glo reagent based luminescence analysis; format: functional, organism-based; details: dose 128.0 µg/ml
[21] = system: Pseudomonas aeruginosa; assay: Bactericidal activity against Pseudomonas aeruginosa PAO1 assessed as bacterial eradication at 8 times of MIC measured at 8 hrs by time-kill kinetics assay relative to control; format: functional
[22] = system: Pseudomonas aeruginosa; assay: Bactericidal activity against Pseudomonas aeruginosa PAO1 assessed as reduction in bacterial growth at 8 times of MIC measured after 48 hrs by time-kill kinetics assay; format: functional, organism-based
[23] = system: Pseudomonas aeruginosa; assay: Bactericidal activity against Pseudomonas aeruginosa PAO1 assessed as reduction in viable bacteria at 4 times of MIC measured at 8 to 48 hrs by time-kill kinetics assay; format: functional, organism-based; details: time 8-48 hrs
[24] = system: Pseudomonas aeruginosa; assay: Bactericidal activity against Pseudomonas aeruginosa PAO1 assessed as log reduction in colony forming units at 4 times of MIC incubated for 1 hrs by time-kill kinetics assay; format: functional
[25] = system: Pseudomonas aeruginosa; assay: Antibacterial activity against Pseudomonas aeruginosa PAO1 infected in C57BL/6 mouse wound model assessed as reduction in bacterial count on wound bed pre-infected with bacteria for 4 hrs followed by topical administration of compounds for 20 hrs and measured 24 hrs post infection; format: functional, organism-based; details: dose 0.1-2 %
[26] = system: Pseudomonas aeruginosa; assay: Antibacterial activity against Pseudomonas aeruginosa PAO1 infected in C57BL/6 mouse wound model assessed as reduction in bacterial count on wound bed at 2 to 8 % w/v pre-infected with bacteria for 24 hrs followed by topical administration of compounds for 24 hrs; format: functional, organism-based; details: dose 2-8 %
[27] = system: HEK293; assay: Cytotoxicity against HEK293 cells assessed as reduction in cell viability incubated for 24 hrs by CellTiter-Glo reagent based luminescence assay; format: toxicity; details: human, hek293, 24 h
[28] = system: Pseudomonas aeruginosa; assay: Antibacterial activity against Pseudomonas aeruginosa PAO1 infected in C57BL/6 mouse wound model assessed as log reduction in colony forming unit on wound bed at 2 % w/v pre-infected with bacteria for 4 hrs followed by topical administration of compounds for 20 hrs and measured 24 hrs post infection; format: functional
[29] = system: Pseudomonas aeruginosa; assay: Antibiofilm activity against preformed biofilm in Pseudomonas aeruginosa PAO1 assessed as reduction in biofilm viability upto 1024 ug/ml incubated for 24 hrs by BacTiter Glo reagent based luminescence analysis; format: functional, organism-based; details: dose <= 1024.0 µg/ml
[30] = system: Pseudomonas aeruginosa; assay: Antibiofilm activity against preformed biofilm in Pseudomonas aeruginosa PAO1 assessed as bacteria killing at 1024 ug/ml incubated for 24 hrs by BacTiter Glo reagent based luminescence analysis; format: functional, organism-based; details: dose 1024.0 µg/ml
[31] = system: Pseudomonas aeruginosa; assay: Bactericidal activity against Pseudomonas aeruginosa PAO1 assessed as reduction in viable bacteria at 4 times of MIC measured after 4 to 8 hrs by time-kill kinetics assay; format: functional, organism-based; details: time 4-8 hrs

## COLISTIN
[1]
  MIC: 2 µg/mL
[2]
  MIC: 2 µg/mL
[3]
  MIC: 2 µg/mL

## CC(=O)O.CC(=O)O.CC(=O)O.CC(=O)O.CCC(=N)N(C)CCCOc1cc(/C=C/c2ccc(/C=C/c3cc(OCCCN(C)C(=N)CC)cc(OCCCN(C)C(=N)CC)c3)cc2)cc(OCCCN(C)C(=N)CC)c1
[4]
  MIC: 1 µg/mL
[1]
  MIC: 8 µg/mL
[5]
  IC50 at 24 h: > 1020 µg/mL
[2]
  MIC: 1 µg/mL
[6]
  selectivity ratio: > 128
[3]
  MIC: 16 µg/mL

## CC(=O)O.CC(=O)O.CC(=O)O.CC(=O)O.CCCN(CCCOc1cc(/C=C/c2ccc(/C=C/c3cc(OCCCN(CCC)C(=N)CC)cc(OCCCN(CCC)C(=N)CC)c3)cc2)cc(OCCCN(CCC)C(=N)CC)c1)C(=N)CC
[4]
  MIC: 1 µg/mL
[1]
  MIC: 16 µg/mL
[5]
  IC50 at 24 h: 32 µg/mL
[2]
  MIC: 2 µg/mL
[6]
  selectivity ratio: 2
[3]
  MIC: 8 µg/mL

## POLYMYXIN B
[7]
  Activity: 100%
[8]
  MBIC50: 2 µg/mL
  MBIC90: 2 µg/mL
[9]
  inhibition: inactive
[10]
  MIC: 2 µg/mL

## CC(=O)O.CC(=O)O.CC(=O)O.CC(=O)O.CCC(=N)N(CCCOc1cc(/C=C/c2ccc(/C=C/c3cc(OCCCN(C(=N)CC)C4CC4)cc(OCCCN(C(=N)CC)C4CC4)c3)cc2)cc(OCCCN(C(=N)CC)C2CC2)c1)C1CC1
[4]
  MIC: 1 µg/mL
[1]
  MIC: 16 µg/mL
[5]
  IC50 at 24 h: 128 µg/mL
[2]
  MIC: 2 µg/mL
[6]
  selectivity ratio: 8
[3]
  MIC: 8 µg/mL

## CC(=O)O.CC(=O)O.CC(=O)O.CC(=O)O.CCC(=N)NCCCOc1cc(/C=C/c2ccc(/C=C/c3cc(OCCCNC(=N)CC)cc(OCCCNC(=N)CC)c3)cc2)cc(OCCCNC(=N)CC)c1
[4]
  MIC: 1 µg/mL
[1]
  MIC: 8 µg/mL
[5]
  IC50 at 24 h: 1020 µg/mL
[2]
  MIC: 1 µg/mL
[6]
  selectivity ratio: 128
[3]
  MIC: 8 µg/mL

## CC(=O)O.CC(=O)O.CC(=O)O.CC(=O)O.N=C(NCCCOc1cc(/C=C/c2ccc(/C=C/c3cc(OCCCNC(=N)C4CC4)cc(OCCCNC(=N)C4CC4)c3)cc2)cc(OCCCNC(=N)C2CC2)c1)C1CC1
[11]
  Activity: 99.9%
[4]
  MIC: 0.5 µg/mL
[12]
  Activity: <1.3 10^-8No_unit
[13]
  fold change (FC): 4
[14]
  Activity: Active
[15]
  pKa: 10
[16]
  Activity: Non-Toxic
[17]
  inhibition (INH): ~31%
[18]
  log(activity): 1.5
[8]
  MBIC50: 1 µg/mL
  MBIC90: 4 µg/mL
[5]
  IC50 at 24 h: 1020 µg/mL
[6]
  selectivity ratio: 512
[19]
  hemolysis at 0.75 h, 492 ug/ml: 0.2%
[20]
  Activity: Active
[21]
  Activity: 100%
[22]
  Activity: Active
[23]
  Activity: inactive
[24]
  log(activity): 3
[25]
  Activity: Dose-Dependent Effect
[10]
  MIC: 8 µg/mL
[26]
  Activity: Active
[27]
  Activity: Non-Toxic
[28]
  log(activity): 2.8

## O=C(O)c1cn(C2CC2)c2cc(N3CCNCC3)c(F)cc2c1=O [CIPROFLOXACIN]
[29]
  Activity: inactive
[8]
  MBIC50: 2 µg/mL
  MBIC90: 2 µg/mL
[9]
  inhibition: inactive

## CC[C@H]1OC(=O)[C@H](C)[C@@H](O[C@H]2C[C@@](C)(OC)[C@@H](O)[C@H](C)O2)[C@H](C)[C@@H](O[C@@H]2O[C@H](C)C[C@H](N(C)C)[C@H]2O)[C@](C)(O)C[C@@H](C)C(=O)[C@H](C)[C@@H](O)[C@]1(C)O [ERYTHROMYCIN]
[4]
  MIC: 0.25 µg/mL (≈ 0.341 µM)

## C(=C\c1cc(OCCCNC2=NCCC2)cc(OCCCNC2=NCCC2)c1)/c1ccc(/C=C/c2cc(OCCCNC3=NCCC3)cc(OCCCNC3=NCCC3)c2)cc1.CC(=O)O.CC(=O)O.CC(=O)O.CC(=O)O
[4]
  MIC: 1 µg/mL
[1]
  MIC: 16 µg/mL
[5]
  IC50 at 24 h: 1020 µg/mL
[2]
  MIC: 2 µg/mL
[6]
  selectivity ratio: 64
[3]
  MIC: 16 µg/mL

## C/N=C(/C)NCCCOc1cc(/C=C/c2ccc(/C=C/c3cc(OCCCN/C(C)=N\C)cc(OCCCN/C(C)=N/C)c3)cc2)cc(OCCCN/C(C)=N/C)c1.CC(=O)O.CC(=O)O.CC(=O)O.CC(=O)O
[4]
  MIC: 1 µg/mL
[1]
  MIC: 32 µg/mL
[5]
  IC50 at 24 h: > 1020 µg/mL
[2]
  MIC: 2 µg/mL
[6]
  selectivity ratio: > 32
[3]
  MIC: 16 µg/mL

## CC(=O)O.CC(=O)O.CC(=O)O.CC(=O)O.CN(CCCOc1cc(/C=C/c2ccc(/C=C/c3cc(OCCCN(C)C(=N)C4CC4)cc(OCCCN(C)C(=N)C4CC4)c3)cc2)cc(OCCCN(C)C(=N)C2CC2)c1)C(=N)C1CC1
[4]
  MIC: 1 µg/mL
[1]
  MIC: 8 µg/mL
[5]
  IC50 at 24 h: 1020 µg/mL
[2]
  MIC: 1 µg/mL
[6]
  selectivity ratio: 128
[3]
  MIC: 8 µg/mL

## CC(=O)O.CC(=O)O.CC(=O)O.CC(=O)O.N=C(CC1CC1)NCCCOc1cc(/C=C/c2ccc(/C=C/c3cc(OCCCNC(=N)CC4CC4)cc(OCCCNC(=N)CC4CC4)c3)cc2)cc(OCCCNC(=N)CC2CC2)c1
[4]
  MIC: 1 µg/mL
[1]
  MIC: 8 µg/mL
[5]
  IC50 at 24 h: 256 µg/mL
[2]
  MIC: 2 µg/mL
[6]
  selectivity ratio: 32
[3]
  MIC: 4 µg/mL

## NC[C@H]1O[C@H](O[C@H]2[C@H](O)[C@@H](O[C@H]3O[C@H](CO)[C@@H](O)[C@H](N)[C@H]3O)[C@H](N)C[C@@H]2N)[C@H](N)C[C@@H]1O [TOBRAMYCIN]
[30]
  Activity: Active
[12]
  Activity: Active
[13]
  fold change (FC): 64
[8]
  MBIC50: 0.5 µg/mL
  MBIC90: 0.5 µg/mL
[9]
  inhibition: inactive
[10]
  MIC: 0.5 µg/mL (≈ 1.07 µM)
[31]
  Activity: inactive

## CC(=O)O.CC(=O)O.CC(=O)O.CC(=O)O.CCCN(CCCOc1cc(/C=C/c2ccc(/C=C/c3cc(OCCCN(CCC)C(=N)C4CC4)cc(OCCCN(CCC)C(=N)C4CC4)c3)cc2)cc(OCCCN(CCC)C(=N)C2CC2)c1)C(=N)C1CC1
[4]
  MIC: 1 µg/mL
[5]
  IC50 at 24 h: 16 µg/mL
[6]
  selectivity ratio: 0.5
